Source: PMC6247689, “Determination of the volatile and polyphenol constituents and the antimicrobial, antioxidant, and tyrosinase inhibitory activities of the bioactive compounds from the by-product of Rosa rugosa Thunb. var. plena Regal tea” (BMC Complementary and Alternative Medicine, 2018)
In brackets after ≈: the same amount, converted by molar mass.

Experiments:
[1] = DPPH radical scavenging activity; conditions: 30 min in the dark, 517 nm; positive control = ascorbic acid
Method: The antioxidant activity of RFCS and the standards were evaluated by DPPH radical scavenging activity using a slightly modified version of a previously reported method. […] Aliquots (100 μL) of the supernatants were transferred into a 96-well microplate, and the absorbance of each was recorded at 517 nm using a Spectramax Plus384 UV-Vis spectrophotometer (Molecular Devices, Sunnyvale, California, USA). […] The IC50 values, which represent the concentrations of rose samples and standard substance at which 50% of the DPPH radical was inhibited, were determined. The tests were performed in triplicate, and the percentage of DPPH scavenging was calculated using the following equation. Inhibition%=H0-H/H0×100 H:Absorbance of RFCS and the standards;H0:Absorbance of the blank

ABTS radical scavenging = conditions: 30 °C, 30 min; positive control = Trolox
Method: The ABTS assay of RFCS was performed according to a modified version of a previously reported method. Briefly, the stock solutions were generated by mixing equal quantities of 7.4 mM ABTS^●+ solution and 2.6 mM potassium persulfate solution, and the mixture was incubated at room temperature for 12 h in the dark. Then, the solution was equilibrated with 1 mL of ABTS^●+ solution with 50% ethanol serving as a positive control. The absorbance of the solution at 734 nm was 1.17 ± 0.02 units. […] The mixture was mixed vigorously and incubated at 30 °C for 30 min. The absorbance was then measured at […] using the spectrophotometer. […] Inhibition%=Absorbance of blank-Absorbance of sample/Absorbance of blank×100

mushroom tyrosinase = assay: Tyrosinase inhibitory activity (spectrophotometric, DOPA substrate); assay type: biochemical; conditions: pH 6.8, 37 °C, 15 min, positive control = kojic acid
Method: The reaction mixture was vortexed and maintained at 37 °C for 15 min, and then the absorption maximum of dopachrome (set at 479 nm) was measured using a microplate reader (Molecular Devices, Sunnyvale, California, USA). The tests were performed in triplicate, and the value of tyrosinase inhibition activity was calculated as described above.

[2] = test system: Escherichia coli (ATCC 25922); assay: MIC and MBC, broth microdilution; assay type: cell-based; conditions: Escherichia coli, ATCC25922, E. coli; for MIC: 37 °C, 24 h, read-out: MIC; for MBC: read-out: MBC
Method: (§1) The antimicrobial activity was measured by the method described by Xue. All standard strains were obtained from the Guangdong Microbiology Culture Center (Guangzhou, China). Listeria ivanovii (ATCC 19119) was cultured in BHI, Salmonella enteritidis enteritidis (ATCC 14028) Staphylococcus aureus (ATCC 25923) and Escherichia coli (ATCC 25922) were cultured in nutrient agar (NA) for 24 h and at 37 °C. candida albicans (ATCC 10231) was cultured in PHB at 37 °C for 24 h. Propionibacterium acnes (ATCC 6919) and Fusobacterium nucleatum (ATCC 10953) were cultured in CDC agar at 37 °C for 48 h in a YQX-II anaerobic incubator (Shanghai, China). The final cell counts in l mL of broth were approximately 10^6 colony-forming units (CFU/mL). A 10 mg/mL solution of miconazole nitrate and hydrochloride tetracycline in water was used as a positive control against fungi and bacteria, respectly.
(§2) The MIC and MBC or MFC values were determined as described previously by Xue. Briefly, 100 μL dilutions (approximately 100,000 CFU/mL) of Staphylococcus aureus, Escherichia coli, Salmonella enteritidis enteritidis, Fusobacterium nucleatum, and Candida albicans in nutrient broth and Listeria ivanovii and Propionibacterium acnes in GMA broth were inoculated into microtiter plates. Then, 100 μL aliquots of the solutions of the test compound were added after a two-fold serial dilution with nutrient broth (from 2 mg/mL to 3 μg/mL). Broths with 5% (v/v) DMSO were used as controls. The petri dishes were incubated at 37 °C for 24 h with the exception of Propionibacterium acnes and Fusobacterium nucleatum, which were incubated at 37 °C for 48 h. The MIC was recorded as the lowest concentration of sample showing no detectable growth. To determine the MBC or MFC values for no bacterial or fungus growth, 10 μL of sub-inhibitory concentrations of the test compounds were incubated on CDC or GMA agar plates for 24 or 48 h. Every determination was carried out in triplicate.

[3] = test system: Fusobacterium nucleatum (ATCC 10953); assay: MIC and MBC, broth microdilution; assay type: cell-based; conditions: Fusobacterium nucleatum, ATCC10953, F. nucleatum; for MIC: anaerobic, 37 °C, 48 h, read-out: MIC; for MBC: read-out: MBC
Method: as §1, §2

[4] = test system: Listeria ivanovii (ATCC 19119); assay: MIC and MBC, broth microdilution; assay type: cell-based; conditions: Listeria ivanovii, ATCC19119, L. ivanovii; for MIC: 37 °C, 24 h, read-out: MIC; for MBC: read-out: MBC
Method: as §1, §2

[5] = test system: Propionibacterium acnes (ATCC 6919); assay: MIC and MBC, broth microdilution; assay type: cell-based; conditions: Cutibacterium acnes, ATCC6919, P. acnes; for MIC: anaerobic, 37 °C, 48 h, read-out: MIC; for MBC: read-out: MBC
Method: as §1, §2

[6] = test system: Salmonella enteritidis enteritidis (ATCC 14028); assay: MIC and MBC, broth microdilution; assay type: cell-based; conditions: Salmonella enterica, S. enteritidis enteritidis; for MIC: 37 °C, 24 h, read-out: MIC; for MBC: read-out: MBC
Method: as §1, §2

[7] = test system: Staphylococcus aureus (ATCC 25923); assay: MIC and MBC, broth microdilution; assay type: cell-based; conditions: Staphylococcus aureus, ATCC25923, S. aureus; for MIC: 37 °C, 24 h, read-out: MIC; for MBC: read-out: MBC
Method: as §1, §2

[8] = test system: candida albicans (ATCC 10231); assay: MIC and MFC, broth microdilution; assay type: cell-based; conditions: Candida albicans, ATCC10231, C. albicans; for MIC: 37 °C, 24 h, read-out: MIC; for MFC: read-out: MFC
Method: as §1, §2

With `CC(C)=CCCC(C)CCO` (centres unmarked) [Citronellol] the “DPPH radical scavenging activity IC50” value [1] was > 10000a μg/mL, the “ABTS radical scavenging activity IC50” value (ABTS radical scavenging) was > 10,000 a μg/mL and the “Tyrosinase inhibition IC50” value (mushroom tyrosinase) was 825 ± 31 a μg/mL. It also gave an MIC [2] of 250 µg/mL (≈ 1600 µM), an MBC [2] of 500 µg/mL (≈ 3200 µM) and an MIC [3] of 250 µg/mL (≈ 1600 µM). For the same compound, the MBC [3] was 1000 µg/mL (≈ 6400 µM), the MIC [4] was 250 µg/mL (≈ 1600 µM) and the MBC [4] was 500 µg/mL (≈ 3200 µM). The MIC [5] was 125 µg/mL (≈ 800 µM), the MBC [5] was 500 µg/mL (≈ 3200 µM) and the MIC [6] was 250 µg/mL (≈ 1600 µM). It also gave an MBC [6] of 1000 µg/mL (≈ 6400 µM), an MIC [7] of 125 µg/mL (≈ 800 µM) and an MBC [7] of 500 µg/mL (≈ 3200 µM). It also gave an MIC [8] of 250 µg/mL (≈ 1600 µM) and an MFC [8] of 500 µg/mL (≈ 3200 µM).

With `C[C@@H]1O[C@@H](OC[C@H]2O[C@@H](Oc3c(-c4ccc(O)c(O)c4)oc4cc(O)cc(O)c4c3=O)[C@H](O)[C@@H](O)[C@@H]2O)[C@H](O)[C@H](O)[C@H]1O` [Rutin] the “DPPH radical scavenging activity IC50” value [1] was 0.715 ± 0.017 c μg/mL, the “ABTS radical scavenging activity IC50” value (ABTS radical scavenging) was 0.621 ± 0.024 c μg/mL and the Tyrosinase inhibition IC50 (mushroom tyrosinase) was 0.856 ± 0.014 µg/mL. The “Tyrosinase inhibition IC50” value (mushroom tyrosinase; listed as rutin) was < 1 µg/mL, the MIC [2] was 250 µg/mL (≈ 409 µM) and the MBC [2] was 1000 µg/mL (≈ 1640 µM). It also gave an MIC [3] of 62 µg/mL (≈ 102 µM), an MBC [3] of 500 µg/mL (≈ 819 µM) and an MIC [4] of 500 µg/mL (≈ 819 µM). For the same compound, the MBC [4] was 1000 µg/mL (≈ 1640 µM), the MIC [5] was 125 µg/mL (≈ 205 µM) and the MBC [5] was 250 µg/mL (≈ 409 µM). It also gave an MIC [6] of 125 µg/mL (≈ 205 µM), an MBC [6] of 500 µg/mL (≈ 819 µM) and an MIC [7] of 250 µg/mL (≈ 409 µM). For the same compound, the MBC [7] was 500 µg/mL (≈ 819 µM), the MIC [8] was 500 µg/mL (≈ 819 µM) and the MFC [8] was 1000 µg/mL (≈ 1640 µM).

With `C=CC(C)(O)CCC=C(C)C` (centres unmarked) [Linalool] the “DPPH radical scavenging activity IC50” value [1] was > 10,000 a μg/mL, the “ABTS radical scavenging activity IC50” value (ABTS radical scavenging) was > 10,000 a μg/mL and the “Tyrosinase inhibition IC50” value (mushroom tyrosinase) was 730 ± 44 a μg/mL. For the same compound, the MIC [2] was 250 µg/mL (≈ 1620 µM), the MBC [2] was 1000 µg/mL (≈ 6480 µM) and the MIC [3] was 250 µg/mL (≈ 1620 µM). The MBC [3] was 1000 µg/mL (≈ 6480 µM), the MIC [4] was 500 µg/mL (≈ 3240 µM) and the MBC [4] was > 1000 µg/mL. For the same compound, the MIC [5] was 250 µg/mL (≈ 1620 µM), the MBC [5] was 1000 µg/mL (≈ 6480 µM) and the MIC [6] was 500 µg/mL (≈ 3240 µM). The MBC [6] was > 1000 µg/mL, the MIC [7] was 250 µg/mL (≈ 1620 µM) and the MBC [7] was 1000 µg/mL (≈ 6480 µM). For the same compound, the MIC [8] was 250 µg/mL (≈ 1620 µM) and the MFC [8] was 1000 µg/mL (≈ 6480 µM).

In the case of `CC(C)=CCC[C@](C)(O)[C@@H]1CC=C(C)CC1` [α-bisabolol], the “DPPH radical scavenging activity IC50” value [1] is reported as > 10,000 a μg/mL, the “ABTS radical scavenging activity IC50” value (ABTS radical scavenging) is reported as > 10,000 a μg/mL and the “Tyrosinase inhibition IC50” value (mushroom tyrosinase) is reported as 635 ± 22 a μg/mL. The MIC [2] was 500 µg/mL (≈ 2250 µM), the MBC [2] was 1000 µg/mL (≈ 4500 µM) and the MIC [3] was 8 µg/mL (≈ 36 µM). It also gave an MBC [3] of 32 µg/mL (≈ 144 µM), an MIC [4] of 8 µg/mL (≈ 36 µM) and an MBC [4] of 32 µg/mL (≈ 144 µM). The MIC [5] was 125 µg/mL (≈ 562 µM), the MBC [5] was 500 µg/mL (≈ 2250 µM) and the MIC [6] was 500 µg/mL (≈ 2250 µM). The MBC [6] was > 1000 µg/mL, the MIC [7] was 250 µg/mL (≈ 1120 µM) and the MBC [7] was 1000 µg/mL (≈ 4500 µM). For the same compound, the MIC [8] was 1000 µg/mL (≈ 4500 µM) and the MFC [8] was > 1000 µg/mL.

In the case of `OCCc1ccccc1` [Phenylethyl alcohol], the “DPPH radical scavenging activity IC50” value [1] is reported as > 10,000 a μg/mL, the “ABTS radical scavenging activity IC50” value (ABTS radical scavenging) is reported as > 10,000 a μg/mL and the “Tyrosinase inhibition IC50” value (mushroom tyrosinase) is reported as 315 ± 13 b μg/mL. The MIC [2] was 250 µg/mL (≈ 2050 µM), the MBC [2] was 1000 µg/mL (≈ 8190 µM) and the MIC [3] was 8 µg/mL (≈ 65.5 µM). For the same compound, the MBC [3] was 32 µg/mL (≈ 262 µM), the MIC [4] was 250 µg/mL (≈ 2050 µM) and the MBC [4] was 500 µg/mL (≈ 4090 µM). For the same compound, the MIC [5] was 125 µg/mL (≈ 1020 µM), the MBC [5] was 500 µg/mL (≈ 4090 µM) and the MIC [6] was 125 µg/mL (≈ 1020 µM). The MBC [6] was 500 µg/mL (≈ 4090 µM), the MIC [7] was 125 µg/mL (≈ 1020 µM) and the MBC [7] was 250 µg/mL (≈ 2050 µM). It also gave an MIC [8] of 250 µg/mL (≈ 2050 µM) and an MFC [8] of 500 µg/mL (≈ 4090 µM).
